Results from patent US10155021B2, “Antimicrobial 4-oxoquinolizines” (Emergent Product Development Gaithersburg Inc., priority 2011, dated 2018).
Converted amounts (≈) assume the structure as drawn. Like-named read-outs stand apart in the source and are kept apart here.

Tests used:
[1] = system: A. baumannii A473; experiment: MIC without and with sub-inhibitory polymyxin B (Example 4); format: cell-based, Acinetobacter baumannii; conditions: for MIC: Acinetobacter baumannii, A473, A. baumannii A473, without polymyxin B, read-out: MIC without PB
[2] = system: A. baumannii A329; experiment: MIC determination for Acinetobacter strains (Example 3); format: cell-based; conditions: LEV R, CIP R, MRP R, IMP R, AMK R, TET R
[3] = system: A. baumannii A472; experiment: as above; format: cell-based; conditions: LEV R, CIP R, MRP I, IMP I, AMK R, TET R
[4] = system: Acinetobacter spp. H064200250; experiment: as above; format: cell-based, Acinetobacter sp.; conditions: LEV R, CIP R, MRP R, IMP I
[5] = system: A. baumannii A489; experiment: MIC without and with sub-inhibitory polymyxin B (Example 4); format: cell-based, Acinetobacter baumannii; conditions: for MIC +[…] PB / MIC without PB/MIC + PB: A. baumannii A489; for MIC +[…] PB: +[…] polymyxin B; for MIC without PB/MIC + PB: ratio; for MIC: Acinetobacter baumannii, A489, A. baumannii A489, without polymyxin B, read-out: MIC without PB
[6] = system: A. baumannii A473; experiment: Preliminary MBC without and with sub-inhibitory polymyxin B (Example 4); format: cell-based, Acinetobacter baumannii; conditions: for MBC: Acinetobacter baumannii, A473, A. baumannii A473, without polymyxin B, read-out: MBC without PB
[7] = system: A. baumannii ATCC 19606; experiment: MIC without and with sub-inhibitory polymyxin B (Example 4); format: cell-based, Acinetobacter baumannii; conditions: for MIC +0.06 μg/ml PB / MIC without PB/MIC + PB: A. baumannii ATCC 19606; for MIC +0.06 μg/ml PB: +0.06 μg/ml polymyxin B; for MIC without PB/MIC + PB: ratio, PB 0.06 μg/ml; for MIC: Acinetobacter baumannii, ATCC19606, A. baumannii ATCC 19606, without polymyxin B
[8] = system: A. baumannii A489; experiment: Preliminary MBC without and with sub-inhibitory polymyxin B (Example 4); format: cell-based, Acinetobacter baumannii; conditions: for MBC +[…] PB: A. baumannii A489, +[…] polymyxin B; for MBC: Acinetobacter baumannii, A489, A. baumannii A489, without polymyxin B, read-out: MBC without PB
[9] = system: A. baumannii A401; experiment: as above; format: cell-based, Acinetobacter baumannii; conditions: preliminary MBC; for MBC +0.06 μg/ml PB: A baumannii A 401, +0.06 μg/ml polymyxin B; for MBC: Acinetobacter baumannii, A401, A baumannii A 401, without polymyxin B, read-out: MBC without PB
[10] = system: A. baumannii A329; experiment: MIC without and with sub-inhibitory polymyxin B (Example 4); format: cell-based, Acinetobacter baumannii; conditions: for MIC: Acinetobacter baumannii, A329, A. baumannii A329, without polymyxin B, read-out: MIC without PB
[11] = system: resistant strains of A. baumannii and one strain of Acinetobacter sp.; experiment: MIC without and with sub-inhibitory polymyxin B, whole panel / MIC ranges (Example 4; also strains not listed separately); format: cell-based; conditions: for MIC +0.06 μg/ml PB / MIC without PB/MIC + PB: A. baumannii A14; for MIC +0.06 μg/ml PB: +0.06 μg/ml polymyxin B; for MIC without PB/MIC + PB: ratio, PB 0.06 μg/ml; for MIC +[…] PB: A. baumannii NCTC 13301, +[…] polymyxin B

C[C@@H](O)[C@H]1C(=O)N2C(C(=O)O)=C(SCCN=CN)C[C@H]12 [Imipenem, reference compound]
MIC +0.06 μg/ml PB ([1]; A. baumannii A473, +0.06 μg/ml polymyxin B, 2nd experiment, visual reading): 4 µg/mL | MIC without PB/MIC + PB ([1]; A. baumannii A473, ratio, PB 0.06 μg/ml, 2nd experiment): 8 | MIC ([1]; 1st experiment): 32 µg/mL (≈ 107 µM) | MIC ([1]; 2nd experiment, visual reading): 32 µg/mL (≈ 107 µM) | MIC [2]: 128 µg/mL (≈ 428 µM) | MIC [3]: 16 µg/mL (≈ 53.4 µM) | MIC [4]: 16 µg/mL (≈ 53.4 µM) | MIC +[…] PB ([5]; 1st experiment): 2 µg/mL (≈ 6.68 µM) | MIC +[…] PB ([5]; 2nd experiment, visual reading): 0.25 µg/mL (≈ 0.835 µM) | MIC without PB/MIC + PB ([5]; 1st experiment): 64 | MIC without PB/MIC + PB ([5]; 2nd experiment): 256 | MIC ([5]; 1st experiment): 128 µg/mL (≈ 428 µM) | MIC ([5]; 2nd experiment, visual reading): 64 µg/mL (≈ 214 µM) | MBC +0.06 μg/ml PB ([6]; A. baumannii A473, +0.06 μg/ml polymyxin B, 2nd experiment): 4 µg/mL | MBC ([6]; 1st experiment): 32 µg/mL (≈ 107 µM) | MBC ([6]; 2nd experiment): 32 µg/mL (≈ 107 µM) | MIC +0.06 μg/ml PB ([7]; 1st experiment): 1 µg/mL | MIC +0.06 μg/ml PB ([7]; 2nd experiment, visual reading): 1 µg/mL | MIC without PB/MIC + PB ([7]; 1st experiment): 2 | MIC without PB/MIC + PB ([7]; 2nd experiment): 1 | MIC ([7]; 1st experiment, read-out: MIC without PB): 2 µg/mL (≈ 6.68 µM) | MIC ([7]; 2nd experiment, second reading marked *, mark not explained, read-out: MIC without PB, value in parentheses marked *): 4 µg/mL (≈ 13.4 µM) | MIC ([7]; 2nd experiment, visual reading, read-out: MIC without PB): 1 µg/mL (≈ 3.34 µM) | MBC +[…] PB ([8]; 1st experiment): 2 µg/mL (≈ 6.68 µM) | MBC +[…] PB ([8]; 2nd experiment): 0.25 µg/mL (≈ 0.835 µM) | MBC ([8]; 1st experiment): 64 µg/mL (≈ 214 µM) | MBC ([8]; 2nd experiment): 64 µg/mL (≈ 214 µM) | MBC +0.06 μg/ml PB ([9]; 2nd experiment): 4 µg/mL | MBC +0.06 μg/ml PB ([9]; 1st experiment): 8 µg/mL | MBC ([9]; 2nd experiment): 32 µg/mL (≈ 107 µM) | MBC ([9]; 1st experiment): 32 µg/mL (≈ 107 µM) | MIC +0.06 μg/ml PB ([10]; A. baumannii A329, +0.06 μg/ml polymyxin B, 2nd experiment, visual reading): 128 µg/mL | MIC without PB/MIC + PB ([10]; A. baumannii A329, ratio, PB 0.06 μg/ml, 2nd experiment): ≥1 | MIC ([10]; 1st experiment): 128 µg/mL (≈ 428 µM) | MIC ([10]; 2nd experiment, visual reading): > 128 µg/mL | Range ratios MIC without PB/MIC with PB 01-10-2008 n = 8 ([11]; 1st experiment, 8 strains): 1-64 | Range ratios MIC without PB/MIC with PB 14-10-2008 n = 11 ([11]; 2nd experiment, 11 strains): 1-256 | MIC +0.06 μg/ml PB ([11]; 1st experiment): 1 µg/mL | MIC +0.06 μg/ml PB ([11]; 2nd experiment, visual reading): 1 µg/mL | MIC without PB/MIC + PB ([11]; 1st experiment): 1 | MIC without PB/MIC + PB ([11]; 2nd experiment): 1 | MIC +[…] PB ([11]; 1st experiment): 16 µg/mL (≈ 53.4 µM) | MIC +[…] PB ([11]; 2nd experiment, visual reading): 1 µg/mL (≈ 3.34 µM)
